Where two headings read alike, the source gives them in different places.
Biological target: T1, CFTR (Homo sapiens, UniProt P13569, DEL508-508)
T1 construct: endogenous in cells; host or cells: primary human bronchial epithelial cells from CF subjects (F508del/MF-HBE), differentiated at air-liquid interface
Assay: HBE assay: Ussing chamber assay of CFTR-mediated short-circuit currents
Type: cell-based
Conditions: for activation at 10 µM: read-out: HBE Activity at 10 μM (%)
Description: 1. Ussing Chamber Assay of CFTR-Mediated Short-Circuit Currents
(§1) Ussing chamber experiments were performed using human bronchial epithelial (HBE) cells derived from CF subjects heterozygous for F508del and a minimal function CFTR mutation (F508del/MF-HBE) and cultured as previously described (Neuberger T, Burton B, Clark H, Van Goor F Methods Mol Biol 2011:741:39-54). After four days the apical media was removed, and the cells were grown at an air liquid interface for >14 days prior to use.
(§2) To isolate the CFTR-mediated short-circuit (ISC) current, F508del/MF-HBE grown on Costar® Snapwell™ cell culture inserts were mounted in an Ussing chamber and the transepithelial ISC was measured under voltage-clamp recording conditions (Vhold=0 mV) at 37° C. The basolateral solution contained (in mM) 145 NaCl, 0.83 K2HPO4, 3.3 KH2PO4, 1.2 MgCl2, 1.2 CaCl2), 10 Glucose, 10 HEPES (pH adjusted to 7.4 with NaOH) and the apical solution contained (in mM) 145 NaGluconate, 1.2 MgCl2, 1.2 CaCl2), 10 glucose, 10 HEPES (pH adjusted to 7.4 with NaOH) and 30 μM amiloride to block the epithelial sodium channel. Forskolin (20 μM) was added to the apical surface to activate CFTR, followed by apical addition of a CFTR inhibitor cocktail consisting of BPO, GlyH-101, and CFTR inhibitor 172 (each at 20 μM final assay concentration) to specifically isolate CFTR currents. The CFTR-mediated ISC (μA/cm^2) for each condition was determined from the peak forskolin response to the steady-state current following inhibition.
2. Identification of Corrector Compounds
The activity of the CFTR corrector compounds on the CFTR-mediated ISC was determined in Ussing chamber studies as described above. The F508del/MF-HBE cell cultures were either incubated with the corrector compounds at a range of concentrations in combination with 1 μM Ivacaftor or were incubated with the corrector compounds at a single fixed concentration of 10 μM in combination with 1 μM Ivacaftor for 18-24 hours at 37° C. and in the presence of 20% human serum. The concentration of corrector compounds with 1 μM Ivacaftor during the 18-24 hours incubations was kept constant throughout the Ussing chamber measurement of the CFTR-mediated ISC to ensure compounds were present throughout the entire experiment.
Ussing Chamber Assay of CFTR-mediated short-circuit currents
as §1, with “(HIBE)” for “(HBE)”, “(F508del/MIF-HIBE)” for “(F508del/MF-HBE)”
as §2, with “KH2PO4,” for “K2HPO4,”
Identification of Corrector Compounds

[1] = Table 11, read-out: HBE Max Activity (%)

T1 sequence (P13569 with tags, fused parts or gaps DEL508-508): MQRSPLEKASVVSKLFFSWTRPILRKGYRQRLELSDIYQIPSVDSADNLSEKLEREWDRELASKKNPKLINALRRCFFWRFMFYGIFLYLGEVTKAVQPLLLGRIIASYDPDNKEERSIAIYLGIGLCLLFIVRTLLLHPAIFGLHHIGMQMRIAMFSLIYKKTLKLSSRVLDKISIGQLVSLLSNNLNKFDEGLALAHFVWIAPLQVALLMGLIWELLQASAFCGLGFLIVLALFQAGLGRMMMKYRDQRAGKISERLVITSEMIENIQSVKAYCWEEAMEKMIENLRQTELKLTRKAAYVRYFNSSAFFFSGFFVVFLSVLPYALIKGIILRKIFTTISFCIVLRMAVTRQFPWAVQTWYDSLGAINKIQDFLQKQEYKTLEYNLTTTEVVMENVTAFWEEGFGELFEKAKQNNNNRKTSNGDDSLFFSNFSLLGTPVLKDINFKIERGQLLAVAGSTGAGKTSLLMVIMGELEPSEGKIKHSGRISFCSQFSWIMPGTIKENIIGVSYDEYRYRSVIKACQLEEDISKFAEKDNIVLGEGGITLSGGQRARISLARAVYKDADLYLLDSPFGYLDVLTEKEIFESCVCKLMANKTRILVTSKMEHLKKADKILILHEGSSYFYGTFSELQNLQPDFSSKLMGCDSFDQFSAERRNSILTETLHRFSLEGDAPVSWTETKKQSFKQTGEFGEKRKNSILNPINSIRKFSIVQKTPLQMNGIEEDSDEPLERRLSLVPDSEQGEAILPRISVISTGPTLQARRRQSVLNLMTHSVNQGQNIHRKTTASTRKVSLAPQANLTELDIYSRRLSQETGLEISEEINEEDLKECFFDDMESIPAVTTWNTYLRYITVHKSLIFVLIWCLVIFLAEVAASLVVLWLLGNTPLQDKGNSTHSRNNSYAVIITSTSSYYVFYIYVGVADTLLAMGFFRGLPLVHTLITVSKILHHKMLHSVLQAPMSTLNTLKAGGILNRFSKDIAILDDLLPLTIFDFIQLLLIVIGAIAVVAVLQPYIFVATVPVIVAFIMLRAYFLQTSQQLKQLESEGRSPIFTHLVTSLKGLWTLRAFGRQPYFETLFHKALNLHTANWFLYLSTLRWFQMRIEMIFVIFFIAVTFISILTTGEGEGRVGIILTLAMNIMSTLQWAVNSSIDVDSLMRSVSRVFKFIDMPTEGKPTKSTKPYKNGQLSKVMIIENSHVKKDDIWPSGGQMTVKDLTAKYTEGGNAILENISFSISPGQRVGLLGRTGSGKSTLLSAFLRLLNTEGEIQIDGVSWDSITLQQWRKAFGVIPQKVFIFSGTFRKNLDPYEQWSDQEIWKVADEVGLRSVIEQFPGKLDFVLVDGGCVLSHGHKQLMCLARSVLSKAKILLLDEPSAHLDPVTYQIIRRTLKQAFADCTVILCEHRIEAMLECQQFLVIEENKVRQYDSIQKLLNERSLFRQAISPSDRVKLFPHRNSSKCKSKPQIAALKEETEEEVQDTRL

## Cc1cccc(C)c1-c1cc2nc(n1)NS(=O)(=O)c1cccc(c1)C(=O)N(Cc1ncc(N3CCC(C)(C)CC3)cn1)[C@H](CC(C)(C)C)CO2 [Compound 117, (11R)-6-(2,6-dimethylphenyl)-12-[[5-(4,4-dimethyl-1-piperidyl)pyrimidin-2-yl]methyl]-11-(2,2-dimethylpropyl)-2,2-dioxo-9-oxa-2λ^6-thia-3,5,12,19-tetrazatricyclo[12.3.1.14,8]nonadeca-1(18),4(19),5,7,14,16-hexaen-13-one]
Table 11, read-out: HBE EC50
  EC50: < 1 µM
[1]
  Emax: > 60%

## Cc1cccc(C)c1-c1cc2nc(n1)NS(=O)(=O)c1cccc(c1)C(=O)N(Cc1ncc(CC(C)C)cn1)[C@H](CC(C)(C)C)CO2 [Compound 120, (11R)-6-(2,6-Dimethylphenyl)-11-(2,2-dimethylpropyl)-12-[(5-isobutylpyrimidin-2-yl)methyl]-2,2-dioxo-9-oxa-2λ^6-thia-3,5,12,19-tetrazatricyclo[12.3.1.14,8]nonadeca-1(18),4(19),5,7,14,16-hexaen-13-one]
Table 11, read-out: HBE EC50
  EC50: < 1 µM
[1]
  Emax: > 60%

## Cc1cccc(C)c1-c1cc2nc(n1)NS(=O)(=O)c1cccc(c1)C(=O)N(Cc1nccc(C(C)C)n1)[C@H](CC(C)(C)C)CO2 [Compound 121, (11R)-6-(2,6-Dimethylphenyl)-11-(2,2-dimethylpropyl)-12-[(4-isopropylpyrimidin-2-yl)methyl]-2,2-dioxo-9-oxa-2λ^6-thia-3,5,12,19-tetrazatricyclo[12.3.1.14,8]nonadeca-1(18),4(19),5,7,14,16-hexaen-13-one]
Table 11, read-out: HBE EC50
  EC50: < 1 µM
[1]
  Emax: > 60%

## Cc1cccc(C)c1-c1cc2nc(n1)NS(=O)(=O)c1cccc(c1)C(=O)N(Cc1nccc(N(C)C(C)C)n1)[C@H](CC(C)(C)C)CO2 [Compound 123, (11R)-6-(2,6-Dimethylphenyl)-11-(2,2-dimethylpropyl)-12-[[4-[isopropyl(methyl)amino]pyrimidin-2-yl]methyl]-2,2-dioxo-9-oxa-2λ^6-thia-3,5,12,19-tetrazatricyclo[12.3.1.14,8]nonadeca-1(18),4(19),5,7,14,16-hexaen-13-one]
Table 11, read-out: HBE EC50
  EC50: < 1 µM
[1]
  Emax: > 60%

## Cc1cccc(C)c1-c1cc2nc(n1)NS(=O)(=O)c1cccc(c1)C(=O)N(Cc1cccc(Oc3ccccc3)n1)[C@H](CC(C)(C)C)CO2 [Compound 126, (11R)-6-(2,6-Dimethylphenyl)-11-(2,2-dimethylpropyl)-2,2-dioxo-12-[(6-phenoxy-2-pyridyl)methyl]-9-oxa-2λ^6-thia-3,5,12,19-tetrazatricyclo[12.3.1.14,8]nonadeca-1(18),4(19),5,7,14,16-hexaen-13-one]
HBE EC50 (μM), Table 10
  EC50: < 1 µM
read-out: HBE Max activity (%)
  Emax: > 60%

## COCCCN(C)c1cccc(CN2C(=O)c3cccc(c3)S(=O)(=O)Nc3nc(cc(-c4c(C)cccc4C)n3)OC[C@H]2CC(C)(C)C)n1 [Compound 127, (11R)-6-(2,6-Dimethylphenyl)-11-(2,2-dimethylpropyl)-12-[[6-[3-methoxypropyl(methyl)amino]-2-pyridyl]methyl]-2,2-dioxo-9-oxa-2λ^6-thia-3,5,12,19-tetrazatricyclo[12.3.1.14,8]nonadeca-1(18),4(19),5,7,14,16-hexaen-13-one]
Table 10, read-out: HBE EC50
  EC50: < 1 µM
read-out: HBE Max activity (%)
  Emax: > 60%

## COCCN(CCOC)c1cccc(CN2C(=O)c3cccc(c3)S(=O)(=O)Nc3nc(cc(-c4c(C)cccc4C)n3)OC[C@H]2CC(C)(C)C)n1 [Compound 128, (11R)-12-[[6-[Bis(2-methoxyethyl)amino]-2-pyridyl]methyl]-6-(2,6-dimethylphenyl)-11-(2,2-dimethylpropyl)-2,2-dioxo-9-oxa-2λ^6-thia-3,5,12,19-tetrazatricyclo[12.3.1.14,8]nonadeca-1(18),4(19),5,7,14,16-hexaen-13-one]
Table 10, read-out: HBE EC50
  EC50: < 1 µM
  activation at 10 µM: > 60%
read-out: HBE Max activity (%)
  Emax: > 60%

## COCC1CCCN1c1cccc(CN2C(=O)c3cccc(c3)S(=O)(=O)Nc3nc(cc(-c4c(C)cccc4C)n3)OC[C@H]2CC(C)(C)C)n1 (stereo partly drawn) [Compound 129, (11R)-6-(2,6-Dimethylphenyl)-11-(2,2-dimethylpropyl)-12-[[6-[2-(methoxymethyl)pyrrolidin-1-yl]-2-pyridyl]methyl]-2,2-dioxo-9-oxa-2λ^6-thia-3,5,12,19-tetrazatricyclo[12.3.1.14,8]nonadeca-1(18),4(19),5,7,14,16-hexaen-13-one]
Table 10, read-out: HBE EC50
  EC50: < 1 µM
  activation at 10 µM: > 60%
read-out: HBE Max activity (%)
  Emax: > 60%

## CCN(c1cccc(CN2C(=O)c3cccc(c3)S(=O)(=O)Nc3nc(cc(-c4c(C)cccc4C)n3)OC[C@H]2CC(C)(C)C)n1)C(C)C [Compound 131, (11R)-6-(2,6-Dimethylphenyl)-11-(2,2-dimethylpropyl)-12-({6-[ethyl(propan-2-yl)amino]pyridin-2-yl}methyl)-9-oxa-2λ^6-thia-3,5,12,19-tetraazatricyclo[12.3.1.14,8]nonadeca-1(17),4,6,8(19),14(18),15-hexaene-2,2,13-trione]
Table 11, read-out: HBE EC50
  EC50: < 1 µM
read-out: HBE Max activity (%)
  Emax: > 60%

## Cc1cccc(C)c1-c1cc2nc(n1)NS(=O)(=O)c1cccc(c1)C(=O)N(Cc1cccc(N3CCC[C@H]3C)n1)[C@H](CC(C)(C)C)CO2 [Compound 132, (11R)-6-(2,6-Dimethylphenyl)-11-(2,2-dimethylpropyl)-12-({6-[(2R)-2-methylpyrrolidin-1-yl]pyridin-2-yl}methyl)-9-oxa-2λ^6-thia-3,5,12,19-tetraazatricyclo[12.3.1.14,8]nonadeca-1(17),4,6,8(19),14(18),15-hexaene-2,2,13-trione]
HBE EC50 (μM), Table 11
  EC50: < 1 µM
read-out: HBE Max activity (%)
  Emax: > 60%

## Cc1cccc(C)c1-c1cc2nc(n1)NS(=O)(=O)c1cccc(c1)C(=O)N(Cc1cccc(N(C)CC(C)(C)C)n1)[C@H](CC(C)(C)C)CO2 [Compound 133, (11R)-6-(2,6-Dimethylphenyl)-11-(2,2-dimethylpropyl)-12-[[6-[2,2-dimethylpropyl(methyl)amino]-2-pyridyl]methyl]-2,2-dioxo-9-oxa-2λ^6-thia-3,5,12,19-tetrazatricyclo[12.3.1.14,8]nonadeca-1(18),4(19),5,7,14,16-hexaen-13-one]
Table 11, read-out: HBE EC50
  EC50: < 1 µM
[1]
  Emax: > 60%

## Cc1cccc(C)c1-c1cc2nc(n1)NS(=O)(=O)c1cccc(c1)C(=O)N(C[C@@H]1CN(CC(C)(C)C)CCO1)[C@H](CC(C)(C)C)CO2 [Compound 142, (11R)-6-(2,6-Dimethylphenyl)-11-(2,2-dimethylpropyl)-12-{[(2S)-4-(2,2-dimethylpropyl)morpholin-2-yl]methyl}-9-oxa-2λ^6-thia-3,5,12,19-tetraazatricyclo[12.3.1.14,8]nonadeca-1(17),4,6,8(19),14(18),15-hexaene-2,2,13-trione]
Table 11, read-out: HBE EC50
  EC50: < 1 µM
[1]
  Emax: > 60%

## Cc1cccc(C)c1-c1cc2nc(n1)NS(=O)(=O)c1cccc(c1)C(=O)N(Cc1ccc(-c3c(C)n[nH]c3C)cc1)[C@H](CC(C)(C)C)CO2 [Compound 143, (11R)-12-{[4-(3,5-dimethyl-1H-pyrazol-4-yl)phenyl]methyl}-6-(2,6-dimethylphenyl)-11-(2,2-dimethylpropyl)-9-oxa-2λ^6-thia-3,5,12,19-tetraazatricyclo[12.3.1.14,8]nonadeca-1(17),4,6,8(19),14(18),15-hexaene-2,2,13-trione]
Table 10, read-out: HBE EC50
  EC50: < 1 µM
Table 10, read-out: HBE Max activity (%)
  Emax: > 60%

From patent US20240150377A1, “MODULATORS OF CYSTIC FIBROSIS TRANSMEMBRANE CONDUCTANCE REGULATOR” (VERTEX PHARMACEUTICALS INCORPORATED, priority 2020, published 2024)
